Data taken from patent US10323022B2, “Pyrrolidinyl urea, pyrrolidinyl thiourea and pyrrolidinyl guanidine compounds as TrkA kinase inhibitors” (Array BioPharma Inc., priority 2011, dated 2019).
Structures can show the parent of a compound that is named as a salt.

Target: TrkA (Homo sapiens (Human), UniProt P04629)
Assay: TrkA Omnia Assay
Type: biochemical
Settings: averaged IC50; 20 nM enzyme, 500 μM ATP, 10 μM peptide substrate
How it was run: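 Continuous fluorescent kinase read-out (ex 360 nm, em 485 nm) over 70 min, with initial rates fitted to 4- or 5-parameter logistic curves for IC50. Final conditions: 500 μM ATP, 10 μM Omnia Tyr Peptide #4, 20 nM TrkA, MOPS pH 7.5 buffer with MgCl2 and Triton X-100; enzyme and compound preincubated 10 min at ambient temperature.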

Sequence of TrkA (P04629 33-796): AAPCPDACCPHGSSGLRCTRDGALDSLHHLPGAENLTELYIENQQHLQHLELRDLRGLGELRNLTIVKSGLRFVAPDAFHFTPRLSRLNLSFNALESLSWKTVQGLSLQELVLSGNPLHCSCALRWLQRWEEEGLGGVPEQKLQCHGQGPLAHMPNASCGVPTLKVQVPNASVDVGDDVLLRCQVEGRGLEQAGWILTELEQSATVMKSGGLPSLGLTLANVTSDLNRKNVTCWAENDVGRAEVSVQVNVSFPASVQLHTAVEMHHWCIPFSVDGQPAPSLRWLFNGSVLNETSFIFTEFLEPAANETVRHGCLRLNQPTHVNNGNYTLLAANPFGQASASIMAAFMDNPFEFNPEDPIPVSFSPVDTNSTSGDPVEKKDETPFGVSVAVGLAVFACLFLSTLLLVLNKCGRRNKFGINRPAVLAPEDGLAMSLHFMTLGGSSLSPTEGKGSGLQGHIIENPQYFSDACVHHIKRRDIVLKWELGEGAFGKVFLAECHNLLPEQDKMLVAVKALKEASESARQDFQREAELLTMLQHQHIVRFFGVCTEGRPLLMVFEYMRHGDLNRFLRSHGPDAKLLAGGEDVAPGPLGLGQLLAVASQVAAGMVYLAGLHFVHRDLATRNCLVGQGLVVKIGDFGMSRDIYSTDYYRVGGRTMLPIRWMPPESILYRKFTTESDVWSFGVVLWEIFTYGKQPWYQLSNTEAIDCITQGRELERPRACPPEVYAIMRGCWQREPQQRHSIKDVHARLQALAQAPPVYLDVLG

COc1ncccc1N1C[C@@H](NC(=O)Nc2c(Br)c(-c3ccccc3)nn2-c2ccccc2)[C@H](c2ccccc2)C1 [Example 247, 1-(4-bromo-1,3-diphenyl-1H-pyrazol-5-yl)-3-((3S,4R)-1-(2-methoxypyridin-3-yl)-4-phenylpyrrolidin-3-yl)urea]
IC50: 100 to 1000 nM

O=C(Nc1c2c(nn1-c1ccccc1)CCC2)N[C@@H]1CN(Cc2csnn2)C[C@H]1c1ccc(F)c(F)c1 [Example 248, 1-((3S,4R)-1-((1,2,3-thiadiazol-4-yl)methyl)-4-(3,4-difluorophenyl)pyrrolidin-3-yl)-3-(2-phenyl-2,4,5,6-tetrahydrocyclopenta[c]pyrazol-3-yl)urea]
IC50: < 100 nM

CCOc1nn(-c2ccccc2)c(NC(=O)N[C@@H]2CN(Cc3csnn3)C[C@H]2c2ccc(F)c(F)c2)c1C [Example 249, 1-((3S,4R)-1-((1,2,3-thiadiazol-4-yl)methyl)-4-(3,4-difluorophenyl)pyrrolidin-3-yl)-3-(3-ethoxy-4-methyl-1-phenyl-1H-pyrazol-5-yl)urea]
IC50: < 100 nM

Cc1c(OCC#N)nn(-c2ccccc2)c1NC(=O)N[C@@H]1CN(Cc2csnn2)C[C@H]1c1ccc(F)c(F)c1 [Example 250, 1-((3S,4R)-1-((1,2,3-thiadiazol-4-yl)methyl)-4-(3,4-difluorophenyl)pyrrolidin-3-yl)-3-(3-(cyanomethoxy)-4-methyl-1-phenyl-1H-pyrazol-5-yl)urea]
IC50: < 100 nM

Cc1c(-c2cnn(C)c2)nn(-c2ccccc2)c1NC(=O)N[C@@H]1CN(Cc2csnn2)C[C@H]1c1ccc(F)c(F)c1 [Example 251, 1-((3S,4R)-1-((1,2,3-thiadiazol-4-yl)methyl)-4-(3,4-difluorophenyl)pyrrolidin-3-yl)-3-(1′,4-dimethyl-1-phenyl-1H, 1′H-3,4′-bipyrazol-5-yl)urea]
IC50: < 100 nM

Cc1c(-c2cn(C)cn2)nn(-c2ccccc2)c1NC(=O)N[C@@H]1CN(Cc2csnn2)C[C@H]1c1ccc(F)c(F)c1 [Example 252, 1-((3S,4R)-1-((1,2,3-thiadiazol-4-yl)methyl)-4-(3,4-difluorophenyl)pyrrolidin-3-yl)-3-(4-methyl-3-(1-methyl-1H-imidazol-4-yl)-1-phenyl-1H-pyrazol-5-yl)urea]
IC50: < 100 nM

Cn1cc(CN2C[C@@H](NC(=O)Nc3c4c(nn3-c3ccccc3)CCC4)[C@H](c3ccc(F)c(F)c3)C2)nn1 [Example 253, 1-((3S,4R)-4-(3,4-difluorophenyl)-1-((1-methyl-1H-1,2,3-triazol-4-yl)methyl)pyrrolidin-3-yl)-3-(2-phenyl-2,4,5,6-tetrahydrocyclopenta[c]pyrazol-3-yl)urea]
IC50: 100 to 1000 nM

CCOc1nn(-c2ccccc2)c(NC(=O)N[C@@H]2CN(C(COC)COC)C[C@H]2c2ccc(F)c(F)c2)c1C [Example 254, 1-((3S,4R)-4-(3,4-difluorophenyl)-1-(1,3-dimethoxypropan-2-yl)pyrrolidin-3-yl)-3-(3-ethoxy-4-methyl-1-phenyl-1H-pyrazol-5-yl)urea]
IC50: < 100 nM

CCOc1nn(-c2ccccc2)c(NC(=O)N[C@@H]2CN(C(C)COC)C[C@H]2c2ccc(F)c(F)c2)c1C (stereo partly drawn) [Example 255, 1-((3S,4R)-4-(3,4-difluorophenyl)-1-(1-methoxypropan-2-yl)pyrrolidin-3-yl)-3-(3-ethoxy-4-methyl-1-phenyl-1H-pyrazol-5-yl)urea]
IC50: < 100 nM

COCC(C(=O)OC)N1C[C@@H](NC(=O)Nc2c3c(nn2-c2ccccc2)CCC3)[C@H](c2ccc(F)c(F)c2)C1 (stereo partly drawn) [Example 259, methyl2-((3R,4S)-3-(3,4-difluorophenyl)-4-(3-(2-phenyl-2,4,5,6-tetrahydrocyclopenta[c]pyrazol-3-yl)ureido)pyrrolidin-1-yl)-3-methoxypropanoate]
IC50: < 100 nM

COCC(CO)N1C[C@@H](NC(=O)Nc2c3c(nn2-c2ccccc2)CCC3)[C@H](c2ccc(F)c(F)c2)C1 (stereo partly drawn) [Example 260, 1-((3S,4R)-4-(3,4-difluorophenyl)-1-(1-hydroxy-3-methoxypropan-2-yl)pyrrolidin-3-yl)-3-(2-phenyl-2,4,5,6-tetrahydrocyclopenta[c]pyrazol-3-yl)urea]
IC50: < 100 nM

COCC(N1C[C@@H](NC(=O)Nc2c3c(nn2-c2ccccc2)CCC3)[C@H](c2ccc(F)c(F)c2)C1)C(C)(C)O (stereo partly drawn) [Example 261, 1-((3S,4R)-4-(3,4-difluorophenyl)-1-(3-hydroxy-1-methoxy-3-methylbutan-2-yl)pyrrolidin-3-yl)-3-(2-phenyl-2,4,5,6-tetrahydrocyclopenta[c]pyrazol-3-yl)urea]
IC50: 100 to 1000 nM

COCC(C(=O)O)N1C[C@@H](NC(=O)Nc2c3c(nn2-c2ccccc2)CCC3)[C@H](c2ccc(F)c(F)c2)C1 (stereo partly drawn) [Example 262, 2-((3R,4S)-3-(3,4-difluorophenyl)-4-(3-(2-phenyl-2,4,5,6-tetrahydrocyclopenta[c]pyrazol-3-yl)ureido)pyrrolidin-1-yl)-3-methoxypropanoic acid hydrochloride]
IC50: 1000 to 10000 nM

CCOc1nn(-c2ccccc2)c(NC(=O)N[C@@H]2CN(C(CO)COC)C[C@H]2c2ccc(F)c(F)c2)c1C (stereo partly drawn) [Example 263, 1-((3S,4R)-4-(3,4-difluorophenyl)-1-(1-hydroxy-3-methoxypropan-2-yl)pyrrolidin-3-yl)-3-(3-ethoxy-4-methyl-1-phenyl-1H-pyrazol-5-yl)urea]
IC50: < 100 nM

COCC(CO)N1C[C@@H](NC(=O)Nc2c(Cl)c(-c3cnn(C)c3)nn2-c2ccccc2)[C@H](c2ccc(F)c(F)c2)C1 (stereo partly drawn) [Example 264]
IC50: < 100 nM

Cc1nn(-c2ccccc2)c(NC(=O)N[C@H]2CN(CC(F)(F)F)C[C@@H]2c2ccccc2)c1C [Example 265, 1-(3,4-dimethyl-1-phenyl-1H-pyrazol-5-yl)-3-((3R,4S)-4-phenyl-1-(2,2,2-trifluoroethyl)pyrrolidin-3-yl)urea]
IC50: < 100 nM

Cc1c(OCCF)nn(-c2ccccc2)c1NC(=O)N[C@H]1CN(CC(F)(F)F)C[C@@H]1c1ccccc1 [Example 266, 1-(3-(2-fluoroethoxy)-4-methyl-1-phenyl-1H-pyrazol-5-yl)-3-((3R,4S)-4-phenyl-1-(2,2,2-trifluoroethyl)pyrrolidin-3-yl)urea]
IC50: < 100 nM

CCOc1nn(-c2ccccc2)c(NC(=O)N[C@H]2CN(CC(F)(F)F)C[C@@H]2c2ccccc2)c1C [Example 267, 1-(3-ethoxy-4-methyl-1-phenyl-1H-pyrazol-5-yl)-3-((3R,4S)-4-phenyl-1-(2,2,2-trifluoroethyl)pyrrolidin-3-yl)urea]
IC50: < 100 nM

Cc1c(OCC#N)nn(-c2ccccc2)c1NC(=O)N[C@H]1CN(CC(F)(F)F)C[C@@H]1c1ccccc1 [Example 268, 1-(3-(cyanomethoxy)-4-methyl-1-phenyl-1H-pyrazol-5-yl)-3-((3R,4S)-4-phenyl-1-(2,2,2-trifluoroethyl)pyrrolidin-3-yl)urea]
IC50: < 100 nM

Cc1c(-c2cnn(C)c2)nn(-c2ccccc2)c1NC(=O)N[C@H]1CN(CC(F)(F)F)C[C@@H]1c1ccccc1 [Example 269, 1-(1′,4-dimethyl-1-phenyl-1H,1′H-3,4′-bipyrazol-5-yl)-3-((3R,4S)-4-phenyl-1-(2,2,2-trifluoroethyl)pyrrolidin-3-yl)urea]
IC50: < 100 nM

Cc1c(OC[C@H]2COC(C)(C)O2)nn(-c2ccccc2)c1NC(=O)N[C@H]1CN(CC(F)(F)F)C[C@@H]1c1ccccc1 [Example 271, 1-(3-(((S)-2,2-dimethyl-1,3-dioxolan-4-yl)methoxy)-4-methyl-1-phenyl-1H-pyrazol-5-yl)-3-((3R,4S)-4-phenyl-1-(2,2,2-trifluoroethyl)pyrrolidin-3-yl)urea]
IC50: < 100 nM

Cc1c(OC[C@H](O)CO)nn(-c2ccccc2)c1NC(=O)N[C@H]1CN(CC(F)(F)F)C[C@@H]1c1ccccc1 [Example 272, 1-(3-((R)-2,3-dihydroxvpropoxy)-4-methyl-1-phenyl-1H-pyrazol-5-yl)-3-((3R,4S)-4-phenyl-1-(2,2,2-trifluoroethyl)pyrrolidin-3-yl)urea]
IC50: < 100 nM

C[C@@H]1C(NC(=O)Nc2c3c(nn2-c2ccccc2)CCC3)[C@H](c2ccccc2)CN1CC(F)(F)F (stereo partly drawn) [Example 273, (R,S)1-((2α,3β,4α)-2-methyl-4-phenyl-1-(2,2,2-trifluoroethyl)pyrrolidin-3-yl)-3-(2-phenyl-2,4,5,6-tetrahydrocyclopenta[c]pyrazol-3-yl)urea]
IC50: 100 to 1000 nM

C[C@H]1[C@@H](c2ccccc2)C(NC(=O)Nc2c3c(nn2-c2ccccc2)CCC3)CN1CC(F)(F)F (stereo partly drawn) [Example 274, (R,S)-1-((3β,4α,5α)-5-methyl-4-phenyl-1-(2,2,2-trifluoroethyl)pyrrolidin-3-yl)-3-(2-phenyl-2,4,5,6-tetrahydrocyclopenta[c]pyrazol-3-yl)urea]
IC50: 100 to 1000 nM

CCOc1nn(-c2ccccc2)c(NC(=O)N[C@@H]2CN([C@@H](CO)C(F)(F)F)C[C@H]2c2ccc(F)c(F)c2)c1C [Example 275, 1-((3S,4R)-4-(3,4-difluorophenyl)-1-((S)-1,1,1-trifluoro-3-hydroxypropan-2-yl)pyrrolidin-3-yl)-3-(3-ethoxv-4-methyl-1-phenyl-1H-pyrazol-5-yl)urea]
IC50: 100 to 1000 nM

CCOc1nn(-c2ccccc2)c(NC(=O)N[C@@H]2CN([C@@H](COC)C(F)(F)F)C[C@H]2c2ccc(F)c(F)c2)c1C [Example 276, 1-((3S,4R)-4-(3,4-difluorophenyl)-1-((S)-1,1,1-trifluoro-3-methoxypropan-2-yl)pyrrolidin-3-yl)-3-(3-ethoxv-4-methyl-1-phenyl-1H-pyrazol-5-yl)urea]
IC50: < 100 nM

COC[C@H](N1C[C@@H](NC(=O)Nc2c(C)c(OC[C@H](C)O)nn2-c2ccccc2)[C@H](c2ccc(F)c(F)c2)C1)C(F)(F)F [Example 277, 1-((3S,4R)-4-(3,4-difluorophenyl)-1-((S)-1,1,1-trifluoro-3-methoxypropan-2-yl)pyrrolidin-3-yl)-3-(3-((S)-2-hydroxypropoxy)-4-methyl-1-phenyl-1H-pyrazol-5-yl)urea]
IC50: < 100 nM
